Biological target: T1, Human HDAC6 (Homo sapiens, UniProt Q9UBN7)
T1 construct: Full length with N-terminal GST tag, MW=159 kDa; GST (N); purchased BioMol SE-508; host or cells: Sf9 cells, baculovirus
T1 sequence (Q9UBN7 1-1215): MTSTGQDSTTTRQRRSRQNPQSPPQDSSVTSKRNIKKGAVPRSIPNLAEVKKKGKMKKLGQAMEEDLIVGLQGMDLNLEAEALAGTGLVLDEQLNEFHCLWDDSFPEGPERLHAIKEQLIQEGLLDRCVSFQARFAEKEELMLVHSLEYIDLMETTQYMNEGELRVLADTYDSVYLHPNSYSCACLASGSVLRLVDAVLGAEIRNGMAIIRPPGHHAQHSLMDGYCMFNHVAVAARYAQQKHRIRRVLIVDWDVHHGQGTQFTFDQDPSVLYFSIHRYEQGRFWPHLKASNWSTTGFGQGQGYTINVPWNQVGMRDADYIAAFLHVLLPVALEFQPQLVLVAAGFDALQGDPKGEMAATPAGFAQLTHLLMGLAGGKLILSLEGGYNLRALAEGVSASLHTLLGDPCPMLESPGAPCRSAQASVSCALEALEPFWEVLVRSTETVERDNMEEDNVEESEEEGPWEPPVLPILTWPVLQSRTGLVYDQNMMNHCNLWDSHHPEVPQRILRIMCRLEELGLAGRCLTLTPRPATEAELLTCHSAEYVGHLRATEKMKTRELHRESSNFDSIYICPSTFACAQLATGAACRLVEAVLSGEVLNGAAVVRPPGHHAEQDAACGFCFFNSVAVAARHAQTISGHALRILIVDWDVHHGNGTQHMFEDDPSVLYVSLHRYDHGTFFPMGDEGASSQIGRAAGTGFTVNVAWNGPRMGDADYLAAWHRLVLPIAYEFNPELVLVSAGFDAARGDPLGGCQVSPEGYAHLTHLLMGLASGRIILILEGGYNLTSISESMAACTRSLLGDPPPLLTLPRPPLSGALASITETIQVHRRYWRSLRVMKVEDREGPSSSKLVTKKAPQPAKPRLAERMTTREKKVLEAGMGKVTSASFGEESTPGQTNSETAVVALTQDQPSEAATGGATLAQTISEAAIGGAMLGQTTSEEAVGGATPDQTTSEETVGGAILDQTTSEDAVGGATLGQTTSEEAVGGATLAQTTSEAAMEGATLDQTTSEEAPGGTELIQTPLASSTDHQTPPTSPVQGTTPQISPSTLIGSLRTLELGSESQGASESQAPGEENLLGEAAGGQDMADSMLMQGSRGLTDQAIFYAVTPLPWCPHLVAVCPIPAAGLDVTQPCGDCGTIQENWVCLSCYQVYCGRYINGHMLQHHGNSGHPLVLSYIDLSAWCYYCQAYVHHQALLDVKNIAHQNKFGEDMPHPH
Test: In vitro HDAC6 inhibition, fluorogenic peptide assay
Assay type: biochemical
Conditions: read-out: IC50 (nM) of enzyme activity HDAC6
Procedure: All HDAC assays were performed using acetylated AMC-labeled peptide substrate: • Substrate for isoforms HDAC1, 2, 3, 4, 5, 6, 7, 9, 10, 11 and HeLa nuclear extract assays: Acetylated fluorogenic peptide from p53 residues 379-382 (RHKKAc) (BioMol. Cat. # KI-104). • Substrate for HDAC8 assays: Acetylated fluorogenic peptide from p53 residues 379-382 (RHKAcKAc) (BioMol. Cat. # KI-178).
Enzymes: • HDAC1 assay: 75 nM Human HDAC1 (GenBank Accession No. NM_004964): Full length with C-terminal GST tag, MW=79.9 kDa, expressed by baculovirus expression system in Sf9 cells (BioMol. Cat. # SE-456). • HDAC2 assay: 5 nM Human HDAC2 (GenBank Accession No. Q92769): Full length with C-terminal His tag, MW=60 kDa, expressed by baculovirus expression system in Sf9 cells (BioMol. Cat. # SE-500). • HDAC3 assay: 2.3 nM Human HDAC3/NcoR2 (GenBank Accession No. NM_003883 for HDAC3, GenBank Accession No.NM_006312 for NcoR2): Complex of human HDAC3, full length with C-terminal His tag, MW=49.7 kDa, and human NCOR2, N-terminal GST tag, MW=39 kDa, co-expressed in baculovirus expression system (BioMol. Cat. # SE-507). • HDAC4 assay: 266 nM Human HDAC4 (GenBank Accession No. NM_006037): Amino acids 627-1085 with N-terminal GST tag, MW=75.2 kDa, expressed in baculovirus expression system (BioMol, Hamburg, Germany). • HDAC5 assay: 588 nM Human HDAC5 (GenBank Accession No. NM_001015053): Full length with Nterminal GST tag, MW=150 kDa, expressed by baculovirus expression system in Sf9 cells (BioMol, Hamburg, Germany). • HDAC6 assay: 13 nM Human HDAC6 (GenBank Accession No. BC069243): Full length with N-terminal GST tag, MW=159 kDa, expressed by baculovirus expression system in Sf9 cells (BioMol. Cat. # SE-508). • HDAC7 assay: 962 nM Human HDAC7 (GenBank Accession No. AY302468): Amino acids 518-end with N-terminal GST tag, MW=78 kDa, expressed in baculovirus expression system (BioMol, Hamburg, Germany). • HDAC8 assay: 119 nM Human HDAC8 (GenBank Accession No. NM018486): Full length, MW=42 kDa, expressed in an E. coli expression system (BioMol. Cat. # SE-145). • HDAC9 assay: 986 nM Human HDAC9 (GenBank Accession No. NM178423): Amino acids 604-1066 with C-terminal His tag, MW=50.7 kDa, expressed in baculovirus expression system (BioMol, Hamburg, Germany). • HDAC10 assay: 781 nM Human HDAC10 (GenBank Accession No. NM_032019): Amino acids 1-631 with Nterminal GST tag, MW=96 kDa, expressed by baculovirus expression system in Sf9 cells (BioMol. Cat. # SE-559). • HDAC11 assay: 781 nM Human HDAC11 (GenBank Accession No. NM_BC009676) with N-terminal GST tag, MW=66 kDa, expressed in baculovirus expression system (BioMol. Cat. # SE-560). • HeLaNuclear Extract assay: 25 ng/μl Nuclear Extract from HeLa Cells: Prepared by high salt extraction of HeLa nuclei (human cervical cancer cell line), this extract is a rich source of HDAC activity (BioMol. Cat. # KI-140).
The reactions were carried out in a 96-well microplate for fluorometry in a 50 μl reaction volume. After the deacetylation reaction, Fluor-de-Lys-Developer (BioMol Cat. # KI-105) was added to each well to digest the deacetylated substrate, thus producing the fluorescent signal. The reaction was allowed to develop for 45 minutes at 30° C. with 5% CO2; then the fluorescent signal was measured with an excitation wavelength at 360 nm and an emission wavelength at 460 nm in a microplate-reading fluorometer (GeminiXS; Molecular Devices, Sunnyvale, Calif.). […] All experiments were performed in triplicate. IC50 was calculated by fitting the experimental data to a dose-response curve. DMSO was used as negative control; Trichostatin A (Biomol Cat. # GR-309) was used as positive control inhibitor.

Row | IC50 | Structure (SMILES)
1 | 20 nM | COc1ccc(-c2cc(-c3ccccc3)[nH]c2C(=O)NCCCCCC(=O)NO)cc1 [Compound A, N-[6-(hydroxyamino)-6-oxohexyl]-3-(4-methoxyphenyl)-5-phenyl-1H-pyrrole-2-carboxamide, reference compound]
2 | 32 nM | COc1ccc(-c2cc(-c3ccccc3)c(C(=O)NCCCCCC(=O)NO)[nH]2)cc1 [Compound B, N-[6-(hydroxyamino)-6-oxohexyl]-5-(4-methoxyphenyl)-3-phenyl-1H-pyrrole-2-carboxamide, reference compound]
3 | 14 nM | O=C(CCCCCNC(=O)c1[nH]c(-c2ccccc2)cc1-c1ccc(O)cc1)NO [Example 1, N-(6-(hydroxyamino)-6-oxohexyl)-3-(4-hydroxyphenyl)-5-phenyl-1H-pyrrole-2-carboxamide]
4 | 7.6 nM | O=C(CCCCCNC(=O)c1[nH]c(-c2ccc(O)cc2)cc1-c1ccccc1)NO [Example 2, N-(6-(hydroxyamino)-6-oxohexyl)-5-(4-hydroxyphenyl)-3-phenyl-1H-pyrrole-2-carboxamide]
5 | 12 nM | O=C(CCCCCNC(=O)c1[nH]c(-c2ccsc2)cc1-c1ccc(O)cc1)NO [Example 3, N-(5-(hydroxycarbamoyl)pentyl)-3-(4-hydroxyphenyl)-5-(3-thienyl)-1H-pyrrole-2-carboxamide]
6 | 9.3 nM | O=C(CCCCCNC(=O)c1[nH]c(-c2ccoc2)cc1-c1ccc(O)cc1)NO [Example 4, 5-(3-furyl)-N-(5-(Hydroxycarbamoyl)pentyl)-3-(4-hydroxy-phenyl)-1H-pyrrole-2-carboxamide]
7 | 0.6 nM | O=C(CCCCCNC(=O)c1[nH]c(-c2ccc(O)cc2)cc1-c1ccoc1)NO [Example 5, 3-(3-furyl)-N-(5-(hydroxycarbamoyl)pentyl)-5-(4-hydroxy-phenyl)-1H-pyrrole-2-carboxamide]
8 | 1.6 nM | O=C(CCCCCNC(=O)c1[nH]c(-c2ccc(O)cc2)cc1-c1ccsc1)NO [Example 6, N-(5-(hydroxycarbamoyl)pentyl)-5-(4-hydroxyphenyl)-3-(3-thienyl)-1H-pyrrole-2-carboxamide]

— patent publication US20150038545A1, “HYDROXYPHENYL PYRROLE COMPOUNDS CONTAINING AN HYDROXAMIC ACID AS HDAC INHIBITORS AND MEDICINAL APPLICATIONS THEREOF” (UNIVERSIDAD DEL PAÍS VASCO, priority 2011, published 2015)
